The results in this text go back to patent publication US20250352555A1, “METHOD OF INCREASING IMMUNE CELL ACTIVATION AND/OR TREATING CANCER USING DIBENZOXAZEPINONES” (VASCULAR THERAPEUTICS PTY LTD, priority 2022, published 2025).

Each structure is given as a SMILES string. Where “and” joins values, the source holds several entries; their conditions need not be identical. Identical values can stand only once. Like-named read-outs stand apart in the source and are kept apart here.

For data set [1], the system named is MeWo cells. Nature of the data set: Invasion assay (Matrigel), MeWo. The class given is cell-based, human. As to conditions: 1 μM, 48 h, with greater potency than SCH772984. The procedure:
Invasion assays. Cells were grown in medium containing 10% FBS in 24-well plates. The following day the cells were scratched with a sterile toothpick, washed with PBS, and overlayed with 90% Matrigel (cat. no. 354230, Corning) (200 μl/well) containing vehicle, BT2 or SCH772984 at 1 μM. The cells were immediately photographed under a 10× objective using an Olympus CKX41 microscope, incubated at 37° C. for 1 h, and medium (800 μl/well) containing 10% FBS with vehicle, BT2 or SCH772984 at 1 μM was added. After 24 or 48 h, the cells were again photographed under a 10× objective using the same microscope. To assess the effect of BT2 on melanoma cell migration, A375 and MeWo cells were incubated with 1 μM of BT2 or SCH772984, and A375 and MeWo migration into the denuded zone was quantified after 24 or 48 h, respectively.

In data set [2] the test system is A375 cells. Nature of the data set: Cell morphology study, A375. The class given is cell-based, human. Particulars: 1 μM, 24 h. The procedure:
Cell morphology studies. Cells were grown in medium containing 10% FBS in 4-well chamber slides. The following day the cells were incubated in medium containing 10% FBS and vehicle, BT2 or SCH772984 at 1 μM for 24 h, then fixed with 4% paraformaldehyde solution for 15 min. After washing briefly in PBS the cells were stained with hemotoxylin and eosin. The slides were scanned using an Aperio ScanScope XT slide scanner (Leica Biosystems, Mt Waverley, Vic, Australia) and images were captured using ImageScope software (Leica Biosystems).
The morphology of A375 and MeWo cells exposed to 1 μM of BT2 or SCH772984 for 24 h was also assessed.

The test system of data set [3] is p-ERK. Nature of the data set: Immunohistochemistry of MDA-MB-435 tumors, p-ERK. As to conditions: SCID mice, 20 mg/kg i.t. It counts as in vivo, mouse. The source says:
Immunohistochemical staining and analyses. Rabbit monoclonal anti-CD3 (cat. no. ab16669; mouse, rat and human reactive), rabbit monoclonal anti-PD-1 (cat. no. ab214421), rabbit monoclonal anti-CD68 (cat. no. ab125212) antibodies were obtained from Abcam, rabbit monoclonal anti-phospho-ERK (Thr^202/Tyr^204) (cat. no. CST4370), rabbit monoclonal total ERK (cat. no. CST4695), antibodies were obtained from Cell Signaling Technology. Rabbit polyclonal anti-PD-L1 (cat. no. PA5-20343) antibody was obtained from ThermoFisher.
Formalin fixed, paraffin embedded sections were prepared from tumors. Heat-induced epitope retrieval was applied to all deparaffinized sections (4 μm sections on Superfrost slides) with citrate buffer, pH 6.0 for 5 min at 110° C. Sections were blocked with Dual Endogenous Enzyme Block (DAKO, S2003) for 10 min and then with 2% skim milk for 20 min. Slides were incubated with primary antibody for 60 min at room temperature or overnight at 4° C. and then for 10 min with probe of MACH3 Rabbit AP-Polymer Detection solution (Biocare Medical, M3R533 G, H, L). […] Integrated optical density (IOD) or area of positive staining (red chromagen) was assessed using Image-Pro Plus software (Cybernetics, Bethesda, MD, USA). Positive staining was the average of quantitation in 4-8 fields of view under 20× or 40× objectives.

Data set [4] can be described thus: Systemic pharmacokinetics after oral (PO) and intraperitoneal (IP) administration. It counts as in vivo. As to conditions: male, CD-1, mouse, plasma, 30 mg/kg, male CD-1 mice; for bioavailability: PO, read-out: relative bioavailability. The procedure: Systemic pharmacokinetics after oral (PO) and intraperitoneal (IP) administration. Male CD-1 mice were injected with BT2 in Formulation 1, Formulation 2 or Formulation 3 (Table 4) and blood was collected after 0.083, 0.25, 0.5, 1, 2, 4, 8 and 24 h. BT2 was given PO or IP injection.
Approximately 110 μl blood samples were collected (n=3/time point, 3 mice/group) into tubes with EDTA-K2 anticoagulant. All blood samples were put on wet ice prior to centrifuging (6000 g, 4° C. for 5 min) to obtain plasma, which were stored at −70° C. or dry ice until analysis.
Plasma samples were analysed by LC-MS/MS (SCIEX ExionLC)-MS/MS (Triple Quad 6500+ With Analyst 1.7.1 AB Sciex). HPLC was performed using a Waters Acquity UPLC HSS T3 1.8 μm, 2.1×50 mm column with Mobile Phase A: H2O-0.025% FA+1 mM NH4OAc and Mobile Phase B: MeOH-0.025% FA+1 mM NH4OAc and injection volume 3 μl.
LC-MS/MS detection was performed for BT2 in plasma of mice given BT2 either by oral gavage (PO) or intraperitoneal (IP) injection. Plasma samples were processed (protein precipitation method used) and injected into LC-MS/MS (SCIEX ExionLC coupled with Triple Quad 6500+).

Turning to `CCOC(=O)Nc1ccc2c(c1)C(=O)N(CC)c1ccccc1O2` [BT2, (10-ethyl-11-oxo-10,11-dihydro-dibenzo[b,f][1,4]oxazepin-2-yl)-carbamic acid ethyl ester], in data set [1], the “invasion into the denuded zone of Matrigel” value is “suppressed”. The cell morphology result in data set [2] is “loss of spindle morphology and cell rounding”. Further, in data set [3], the “ERK phosphorylation in the tumors (IHC)” value is reported as “suppression of ERK phosphorylation”. For the same molecule, in data set [4] (ip, Formulation 1 (G2)), the AUC(0-t) (usually exposure summed from dosing to a finite time, without extrapolation to infinity) is 1440 ng·h/mL and 4.41 µM·h; the Cmax – broadly, the highest concentration seen after dosing – was 1070 ng/mL and 3.29 µM; the Tmax (commonly the time from dosing to the highest level) was 15 min; the half-life (commonly the time in which the quantity being followed falls by half) is 523 min. In addition, in data set [4] (ip, Formulation 3 (G6)), the AUC(0-t) is 1180 ng·h/mL and 3.62 µM·h; the Cmax was 2.59 µM and 846 ng/mL; the Tmax was 30 min; the half-life is 505 min. In data set [4] (po, Formulation 1 (G1)), the bioavailability (usually dose-corrected exposure relative to a reference, in per cent) was 13.1%; the AUC(0-t) was 189 ng·h/mL and 0.579 µM·h; the Cmax is 177 nM and 57.9 ng/mL; the Tmax is 15 min. In addition, in data set [4] (po, Formulation 3 (G5)), the bioavailability was 28.8%; the AUC(0-t) was 340 ng·h/mL and 1.04 µM·h; the Cmax is 53.7 ng/mL and 165 nM; the Tmax turned out to be 60 min.
